# Experimental data reported in article PMC8765320, “Identification of a Proteasome-Targeting Arylsulfonamide with Potential for the Treatment of Chagas’ Disease” (Antimicrobial Agents and Chemotherapy, 2022).
# What was measured:
# [1] = system: ubiquitinated proteins in T. cruzi epimastigotes; assay: Accumulation of ubiquitinated proteins in treated epimastigotes (LC-MS/MS); type: cell-based, Trypanosoma cruzi; details: epimastigotes pretreated 8 h at 3× EC50 (methods: 8× EC50); one biological replicate
# Protocol: In cells where the function of the proteasome has been compromised, there is a concomitant build-up of ubiquitinated proteins earmarked for degradation. […] Control cultures were treated for the same period of time in the presence of dimethyl sulfoxide (DMSO). Enrichment of ubiquitinated proteins was achieved by immunoprecipitation using magnetic beads conjugated to an antibody specific for the remnant of ubiquitinated lysines following digestion with trypsin and/or LysC. We used liquid chromatography-tandem mass spectrometry (LC-MS/MS) to calculate the ubiquitination ratio of each sample by dividing the reporter intensity of ubiquitinated proteins by the reporter intensity of total protein (see Table S8). As expected, the accumulation of ubiquitinylated proteins was highest in epimastigotes treated with bortezomib (2.7-fold higher than in the DMSO-treated control), which is known to inhibit all three catalytic activities of the proteasome (Fig. 3). […] Similarly, ubiquitinated proteins accumulated to levels 1.9-fold higher in compound 1-treated parasites compared to those recovered from DMSO-treated control cells.
# Controls were incubated in the presence of diluent (DMSO). Cells were harvested by centrifugation (1,912 × g, 15 min, 4°C) and washed with ice-cold PBS (1,912 × g, 5 min, 4°C); finally, the cell pellets were resuspended in 1.5 ml of ice-cold lysis buffer (1 mM EDTA, 1 mM DTT, 100 μM TLCK, and 1× Roche EDTA-free cOmplete protease inhibitor cocktail in 50 mM potassium phosphate buffer [pH 7.4]). Cell suspensions were submitted to three freeze-thaw cycles in a dry ice/ethanol bath to biologically inactivate the parasites and then lysed using a OneShot cell disruptor (Constant Systems) at 30 kpsi.
# Cell lysates were centrifuged (100,000 × g, 20 min, 4°C), supernatants were collected, and the protein concentrations were determined by using a standard Bio-Rad protein assay. […]
# [2] = system: T. cruzi malic enzyme (cTcME); assay: Malic enzyme assay in clarified epimastigote lysates (NADPH production, 340 nm); type: biochemical, Trypanosoma cruzi
# Description: Malic enzyme (ME) catalyzes the oxidative decarboxylation of malate to pyruvate with the concomitant reduction of NAD(P)^+ to NAD(P)H. In light of our TPP studies, we next sought to determine whether the binding of compound 1 to cTcME inhibits enzymatic activity. The ME-dependent production of NADPH was monitored in clarified lysates of T. cruzi epimastigotes at 340 nm after the addition of malate. In the first instance, this assay was validated using ATR-073, an established inhibitor of cTcME ([27]). […] Similarly, preincubation of lysates with 20 μM and 1 μM concentrations of compound 1 inhibited ME activity by 96 and 68%, respectively (Fig. 4C). […] It should be noted that ATR-073 and compound 1 are structurally similar, both being substituted N-phenyl aryl sulfonamides, this common moiety constituting the pharmacophore of this chemical series.
# Logarithmic T. cruzi epimastigotes were harvested (1,690 × g, 10 min, 4°C), washed once in ice-cold phosphate-buffered saline, and resuspended at 2 × 10^9 cells ml^−1 in lysis buffer (10 mM phosphate buffer [pH 7.2], 10 mM EDTA, 5 mM benzamidine, 5 mM phenanthroline, 0.1 mM phenylmethylsulfonyl fluoride) containing 1 mg ml^−1 digitonin, followed by incubation at 28°C for 10 min. The resulting lysate was then centrifuged (13,000 × g, 10 min, 4°C), and the supernatant was harvested and stored on ice. The protein concentration of this clarified lysate was determined by using a standard Bio-Rad protein assay.
# The activity of malic enzyme was assayed as previously described ([42]), with minor modifications. T. cruzi clarified lysate (30 μl) was added to a reaction mixture (500 μl final volume) containing 50 mM Tris-HCl buffer (pH 7.6), 1 mM MnCl2, and 0.12 mM NADP^+. Reactions were initiated by the addition of 5 mM L-malate. The reduction of NADP^+ was monitored at 340 nm using a UV-2401 spectrophotometer (Shimadzu). To monitor the effect of test compounds on the activity of malic enzyme, compounds (1 and 20 μM) were preincubated for 10 min with the lysate in the reaction mixture. DMSO (0.2%) was used as control. All enzymatic activities were calculated as Δabs min^−1 mg^−1 of protein.
smiles,measurement,setting,value
COc1ccc(NS(=O)(=O)c2cc(-c3cc(C)n[nH]3)ccc2C)cc1OC [Compound 1],accumulation of ubiquitinated proteins versus DMSO-treated control,[1],1.9 fold
same,reduction in ME activity,[2]; preincubation of lysates with 1 μM,68%
same,reduction in ME activity,[2]; preincubation of lysates with 20 μM,96%
